Experiments:
[1] = DRUGMATRIX: Calcium Channel Type L, Dihydropyridine radioligand binding (ligand: [3H] Nitrendipine); assay type: cell membranes, Rattus norvegicus, Wistar, Cerebral cortex, Membrane; conditions: Not Active = under 50% inhibition at 10 µM
[2] = DRUGMATRIX: GABAA, Flunitrazepam, Central radioligand binding (ligand: [3H] Flunitrazepam); assay type: cell membranes, Rattus norvegicus, Wistar, Brain, Membrane; conditions: Not Active = under 50% inhibition at 10 µM
[3] = DRUGMATRIX: GABAA, Chloride Channel, TBOB radioligand binding (ligand: [3H] TBOB); assay type: cell membranes, Rattus norvegicus, Wistar, Cerebral cortex, Membrane; conditions: Not Active = under 50% inhibition at 10 µM
[4] = target: T1, Muscarinic acetylcholine receptor M5 (Homo sapiens, UniProt P08912); assay type: cell membranes, CHO-K1, Membrane; note: in other assays of this panel Not Active means under 50% inhibition at 10 µM
T1 sequence (P08912 whole entry): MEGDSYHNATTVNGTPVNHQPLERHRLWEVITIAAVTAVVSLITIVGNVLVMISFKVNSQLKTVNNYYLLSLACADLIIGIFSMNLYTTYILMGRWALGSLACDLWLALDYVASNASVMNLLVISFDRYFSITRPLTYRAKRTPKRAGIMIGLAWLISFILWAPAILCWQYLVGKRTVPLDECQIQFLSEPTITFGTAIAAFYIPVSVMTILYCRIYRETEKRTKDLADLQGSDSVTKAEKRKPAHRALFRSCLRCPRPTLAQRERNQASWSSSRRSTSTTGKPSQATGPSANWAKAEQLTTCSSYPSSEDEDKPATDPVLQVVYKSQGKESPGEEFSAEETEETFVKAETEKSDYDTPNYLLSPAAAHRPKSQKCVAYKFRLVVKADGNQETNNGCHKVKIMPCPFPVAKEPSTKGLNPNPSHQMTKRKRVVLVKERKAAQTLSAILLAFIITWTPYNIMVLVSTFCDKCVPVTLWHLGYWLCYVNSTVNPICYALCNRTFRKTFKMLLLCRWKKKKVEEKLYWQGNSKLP

[5] = target: T2, Neuropeptide Y receptor type 2 (Homo sapiens, UniProt P49146); assay type: cell membranes, Membrane; conditions: kan-ts; note: in other assays of this panel Not Active means under 50% inhibition at 10 µM
T2 sequence (P49146 whole entry): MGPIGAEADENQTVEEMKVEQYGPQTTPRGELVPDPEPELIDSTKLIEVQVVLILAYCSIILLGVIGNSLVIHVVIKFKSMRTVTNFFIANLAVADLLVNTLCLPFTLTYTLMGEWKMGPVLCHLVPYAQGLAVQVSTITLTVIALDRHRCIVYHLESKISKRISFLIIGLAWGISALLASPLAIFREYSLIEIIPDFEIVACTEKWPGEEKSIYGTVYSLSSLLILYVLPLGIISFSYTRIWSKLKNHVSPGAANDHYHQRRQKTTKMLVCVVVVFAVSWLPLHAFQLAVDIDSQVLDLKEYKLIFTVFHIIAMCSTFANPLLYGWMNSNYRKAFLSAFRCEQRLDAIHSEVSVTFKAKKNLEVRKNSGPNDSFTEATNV

[6] = DRUGMATRIX: Phosphodiesterase PDE4 enzyme inhibition (substrate: [3H]cAMP + cAMP); conditions: u-937; Not Active = under 50% inhibition at 10 µM
Neutrophil elastase = target: T3, Neutrophil elastase (Homo sapiens, UniProt P08246); assay type: tissue-based;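 note: inhibition of neutrophil elastase enzyme activity, measured with a p-nitroanilide-linked peptide substrate; in other assays of this panel Not Active means under 50% inhibition at 10 µM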
T3 sequence (P08246 whole entry): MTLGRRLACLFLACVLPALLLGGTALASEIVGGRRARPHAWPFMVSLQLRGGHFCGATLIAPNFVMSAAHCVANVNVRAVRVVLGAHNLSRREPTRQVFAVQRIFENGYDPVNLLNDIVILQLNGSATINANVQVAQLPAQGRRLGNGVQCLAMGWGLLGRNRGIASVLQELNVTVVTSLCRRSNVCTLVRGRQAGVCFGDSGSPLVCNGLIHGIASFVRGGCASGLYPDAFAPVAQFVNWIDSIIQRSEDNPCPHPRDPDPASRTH

[7] = target: T4, 5-hydroxytryptamine receptor 1A (Rattus norvegicus, UniProt P19327); assay type: cell membranes, Membrane; conditions: cho-k1; note: in other assays of this panel Not Active means under 50% inhibition at 10 µM
T4 sequence (P19327 whole entry): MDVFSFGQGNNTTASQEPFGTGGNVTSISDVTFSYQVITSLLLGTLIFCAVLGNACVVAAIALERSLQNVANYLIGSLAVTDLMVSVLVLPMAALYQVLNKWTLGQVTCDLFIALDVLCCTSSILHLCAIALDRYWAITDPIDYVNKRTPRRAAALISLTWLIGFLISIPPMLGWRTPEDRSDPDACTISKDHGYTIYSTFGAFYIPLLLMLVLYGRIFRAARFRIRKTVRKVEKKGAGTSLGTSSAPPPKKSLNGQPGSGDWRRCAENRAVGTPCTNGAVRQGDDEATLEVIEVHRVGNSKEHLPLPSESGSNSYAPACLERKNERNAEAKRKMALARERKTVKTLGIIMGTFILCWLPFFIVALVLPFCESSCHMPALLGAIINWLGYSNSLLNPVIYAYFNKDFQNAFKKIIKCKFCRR

| Structure (SMILES) | IC50 [1] | Ki [1] | IC50 [2] | Ki [2] | IC50 [3] | Ki [3] | IC50 ([4]; cho-k1) | IC50 [5] | IC50 [6] | Ki [6] | IC50 (Neutrophil elastase) | IC50 [7] | IC50 ([1]; read-out: IC50) [nM] | Ki ([1]; read-out: Ki) [nM] | IC50 ([4]; read-out: IC50) [nM] | Ki ([4]; read-out: Ki) [nM] |
| --- | --- | --- | --- | --- | --- | --- | --- | --- | --- | --- | --- | --- | --- | --- | --- | --- |
| C[C@H]1O[C@@H](O[C@H]2[C@@H](O)C[C@H](O[C@H]3[C@@H](O)C[C@H](O[C@H]4CC[C@@]5(C)[C@H](CC[C@@H]6[C@@H]5CC[C@]5(C)[C@@H](C7=CC(=O)OC7)CC[C@]65O)C4)O[C@@H]3C)O[C@@H]2C)C[C@H](O)[C@@H]1O [DIGITOXIN] | Not Active | Not Active | Not Active | Not Active | Not Active | Not Active | Not Active | Not Active | Not Active | Not Active | Not Active | Not Active |  |  |  |  |
| CCN1CC(CCN2CCOCC2)C(c2ccccc2)(c2ccccc2)C1=O (stereo not drawn) [DOXAPRAM] | Not Active | Not Active | Not Active | Not Active | Not Active | Not Active | Not Active | Not Active | Not Active | Not Active | Not Active | Not Active |  |  |  |  |
| Cn1c(=O)c2c(ncn2CC2OCCO2)n(C)c1=O [DOXOFYLLINE] | Not Active | Not Active | Not Active | Not Active | Not Active | Not Active | Not Active | Not Active | Not Active | Not Active | Not Active | Not Active |  |  |  |  |
| COc1cccc2c1C(=O)c1c(O)c3c(c(O)c1C2=O)C[C@@](O)(C(=O)CO)C[C@@H]3O[C@H]1C[C@H](N)[C@H](O)[C@H](C)O1 [DOXORUBICIN] | Not Active | Not Active | Not Active | Not Active | Not Active | Not Active | Not Active | Not Active | Not Active | Not Active | Not Active | Not Active |  |  |  |  |
| COc1cccc2c1C(=O)c1c(O)c3c(c(O)c1C2=O)C[C@@](O)(C(=O)CO)C[C@@H]3O[C@H]1C[C@H](N)[C@@H](O)[C@H](C)O1 [EPIRUBICIN] | Not Active | Not Active | Not Active | Not Active | Not Active | Not Active | Not Active | Not Active | Not Active | Not Active | Not Active | Not Active |  |  |  |  |
| C[C@]12CC[C@@H]3c4ccc(OC(=O)c5ccccc5)cc4CC[C@H]3[C@@H]1CC[C@@H]2O [ESTRADIOL BENZOATE] | Not Active | Not Active | Not Active | Not Active | Not Active | Not Active | Not Active | Not Active | Not Active | Not Active | Not Active | Not Active |  |  |  |  |
| C[C@]12CC[C@@H]3c4ccc(O)cc4CC[C@H]3[C@@H]1CC[C@@H]2O [ESTRADIOL] | Not Active | Not Active | Not Active | Not Active | Not Active | Not Active | Not Active | Not Active | Not Active | Not Active | Not Active | Not Active |  |  |  |  |
| CC[C@@H](CO)NCCN[C@@H](CC)CO [ETHAMBUTOL] | Not Active | Not Active | Not Active | Not Active | Not Active | Not Active | Not Active | Not Active | Not Active | Not Active | Not Active | Not Active |  |  |  |  |
| CC1(C)O[C@@H]2C[C@H]3[C@@H]4C[C@H](F)C5=CC(=O)C=C[C@]5(C)[C@H]4[C@@H](O)C[C@]3(C)[C@]2(C(=O)CO)O1 [FLUNISOLIDE] | Not Active | Not Active | Not Active | Not Active | Not Active | Not Active | Not Active | Not Active | Not Active | Not Active | Not Active | Not Active |  |  |  |  |
| CC1(C)O[C@@H]2C[C@H]3[C@@H]4C[C@H](F)C5=CC(=O)C=C[C@]5(C)[C@@]4(F)[C@@H](O)C[C@]3(C)[C@]2(C(=O)CO)O1 [FLUOCINOLONE ACETONIDE] | Not Active | Not Active | Not Active | Not Active | Not Active | Not Active | Not Active | Not Active | Not Active | Not Active | Not Active | Not Active |  |  |  |  |
| CC1(C)O[C@@H]2C[C@H]3[C@@H]4C[C@H](F)C5=CC(=O)CC[C@]5(C)[C@H]4[C@@H](O)C[C@]3(C)[C@]2(C(=O)CO)O1 [FLURANDRENOLIDE] | Not Active | Not Active | Not Active | Not Active | Not Active | Not Active | Not Active | Not Active | Not Active | Not Active | Not Active | Not Active |  |  |  |  |
| CN(C)c1ccc(C(=C2C=CC(=[N+](C)C)C=C2)c2ccc(N(C)C)cc2)cc1.[Cl-] [GENTIAN VIOLET] |  |  | Not Active | Not Active | Not Active | Not Active |  | Not Active | Not Active | Not Active | Not Active | Not Active | 2130 | 1370 | 535 | 384 |
| Cc1ccc(S(=O)(=O)NC(=O)NN2CC3CCCC3C2)cc1 (stereo not drawn) [GLICLAZIDE] | Not Active | Not Active | Not Active | Not Active | Not Active | Not Active | Not Active | Not Active | Not Active | Not Active | Not Active | Not Active |  |  |  |  |
| NC(=O)NO [HYDROXYUREA] | Not Active | Not Active | Not Active | Not Active | Not Active | Not Active | Not Active | Not Active | Not Active | Not Active | Not Active | Not Active |  |  |  |  |
| CC(C)Cc1ccc(C(C)C(=O)O)cc1 (stereo not drawn) [IBUPROFEN] | Not Active | Not Active | Not Active | Not Active | Not Active | Not Active | Not Active | Not Active | Not Active | Not Active | Not Active | Not Active |  |  |  |  |
| COc1ccc2c(c1)c(CC(=O)O)c(C)n2C(=O)c1ccc(Cl)cc1 [INDOMETHACIN] | Not Active | Not Active | Not Active | Not Active | Not Active | Not Active | Not Active | Not Active | Not Active | Not Active | Not Active | Not Active |  |  |  |  |
